Assay results taken from PubChem BioAssay AID2060357 (Molecular Pharmacology Branch, DTP, NCI, 2025).
“And” between values parts separate entries of the source, which are not always exact repeats. Equal entries are not always repeated.

Tested on: 292921-168-R-J2-PDC spheroids with HUVEC/MSC, viability
Test: Anticancer human tumor 292921-168-R-J2-PDC patient-derived pancreatic carcinoma cell line growth inhibition [TAK]
Details: for viability, T/C: stronger effect = lower value
Source text: Combinatorial screen of targeted agents with TAK-243 and ipatasertib in multi-cell type tumor spheroids
A high-throughput screen of multi-cell type tumor spheroids was designed to identify active combinations of targeted small molecules and TAK-243 or ipatasertib. Complex spheroids include a stromal component modeled by human endothelial cells (HUVEC) and fibroblasts modeled by human mesenchymal stem cells (MSCs). The concentration ranges selected for each drug and investigational agent were based upon clinically achievable concentrations if the clinical Cmax of the agent was known.
Compounds. The drugs and investigational agents: TAK-243 (785004), ipatasertib (767898), everolimus (733504), selumetinib (741078), bortezomib (756655), trametinib (758246), ixazomib (758254), vemurafenib (761431), dabrafenib (764134), sapanisertib (764658), alpelisib (765974), and copanlisib (816437), were obtained from the National Cancer Institute (NCI) Developmental Therapeutics Program Chemical Repository. The FDA-approved anticancer drug set is available from the NCI Developmental Therapeutics Program. […] The stock solutions were prepared in dimethyl sulfoxide (DMSO, Sigma-Aldrich, St. Louis, MO, cat. D2650) at 800-fold the tested concentration and stored at -70 degrees C prior to their use. All drugs and investigational agents were tested over a range starting from a high concentration at or near the clinical Cmax and decreasing in half-log increments. If the clinical Cmax for an agent had not been determined, the highest concentration tested was 10 microM.
NCI60 Cell Culture. NCI60 cell lines were obtained from the NCI Developmental Therapeutics Program Tumor Repository. For each lot of cells, the Repository performed Applied Biosystems AmpFLSTR Identifiler testing with PCR amplification to confirm consistency with the published Identifier STR profile for each cell line. Cells were kept in continuous culture for no more than 20 passages. The optimal seeding densities for each of the cell lines at each time point assessed were determined prior to performing the concentration response studies. Briefly, the NCI60 human tumor lines were grown as monolayers in RPMI 1640 medium supplemented with 10% FBS and 2 mmol/L L-glutamine.
An additional 2 lines were from the NCI60 cell line panel including melanomas, MALME-3M and SK-MEL-2. Pooled donor human umbilical vein endothelial cells (HUVEC, Lonza, cat. CC-2519) and human mesenchymal stem cells (hMSC, Lonza, cat. PT-2501) were purchased from Lonza (Walkersville, MD).
PDMR cell lines were grown in complete medium (DC medium): Dulbecco's modified Eagle's medium (DMEM)/F12 supplemented with 5% fetal bovine serum (FBS), 2 mM L-glutamine, 100 U/mL penicillin and 100 µg/ml streptomycin, 0.4 µg/ml hydrocortisone, 10 ng/ml epidermal growth factor (EGF) recombinant human protein, 24 µg/mL adenine, and 0.1 mg/mL primocin. During culture from frozen stock vials, PDMR cells were cultured in the same medium containing 10 µM Y-27632 (see Table 3). The PDCs were cultured in complete DMEM/F12 media without 10 microM Y-27632 dihydrochloride for at least two passages prior to the screen. The pooled donor HUVEC and hMSC were cultured in endothelial cell growth medium 2 (PromoCell, Heidelberg, Germany, cat. C-22011) and mesenchymal stem cell growth medium 2 (PromoCell, cat. C-28009), respectively. For all experiments, HUVEC and hMSC were used at passages </=5.
For the pre-screen, cell seeding densities were determined from a titration spanning the range from 5,000 to 313 cells per well. The mct-spheroids including 60% malignant cells, 25% HUVEC and 15% MSC dispensed as a mixture into U-bottom Ultra-Low Attachment 384-well plates (Corning, NY)
High-throughput Drug Combination Screening.
Prior to their inoculation into 384-well plates, malignant cells, HUVEC, and hMSC were removed from T flasks using TrypLE express (Thermo Fisher Scientific, cat. 12605036) and harvested by centrifugation for 5 min at 233 x g. […]

[1] = curve of first compound, second compound 0.3 µM
[2] = curve of first compound, second compound 0.949 µM
[3] = curve of first compound, second compound 3 µM
[4] = curve of first compound, second compound 9.49 µM
[5] = curve of first compound, second compound 30 µM
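Further: spheroids exposed to drugs for seven days before readout.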

SMILES: CC(C)CC(NC(=O)C(Cc1ccccc1)NC(=O)c1cnccn1)B(O)O (centres undefined) + CC(C)NCC(C(=O)N1CCN(c2ncnc3c2C(C)CC3O)CC1)c1ccc(Cl)cc1
- IC50 [1]: 4.58 nM
- IC50 [2]: 4.11 nM
- IC50 [3]: 4.07 nM
- IC50 [4]: 3.99 nM
- IC50 [5]: < 0.0316 nM
- viability, T/C (second compound 0.3 µM, first compound 31.6 pM): 83.7%
- viability, T/C (second compound 0.3 µM, first compound 0.0001 µM): 86.5%
- viability, T/C (second compound 0.3 µM, first compound 0.000316 µM): 88.6%
- viability, T/C (second compound 0.3 µM, first compound 0.001 µM): 89.3%
- viability, T/C (second compound 0.3 µM, first compound 0.00316 µM): 69%
- viability, T/C (second compound 0.3 µM, first compound 0.01 µM): 9.99%
- viability, T/C (second compound 0.949 µM, first compound 31.6 pM): 80.2%
- viability, T/C (second compound 0.949 µM, first compound 0.0001 µM): 81.7%
- viability, T/C (second compound 0.949 µM, first compound 0.000316 µM): 83.5%
- viability, T/C (second compound 0.949 µM, first compound 0.001 µM): 80.9%
- viability, T/C (second compound 0.949 µM, first compound 0.00316 µM): 62.9%
- viability, T/C (second compound 0.949 µM, first compound 0.01 µM): 6.56%
- viability, T/C (second compound 3 µM, first compound 31.6 pM): 73.9%
- viability, T/C (second compound 3 µM, first compound 0.0001 µM): 76.1%
- viability, T/C (second compound 3 µM, first compound 0.000316 µM): 72.6%
- viability, T/C (second compound 3 µM, first compound 0.001 µM): 78.6%
- viability, T/C (second compound 3 µM, first compound 0.00316 µM): 62.1%
- viability, T/C (second compound 3 µM, first compound 0.01 µM): 6.46%
- viability, T/C (second compound 9.49 µM, first compound 31.6 pM): 64.1%
- viability, T/C (second compound 9.49 µM, first compound 0.0001 µM): 63%
- viability, T/C (second compound 9.49 µM, first compound 0.000316 µM): 58.7%
- viability, T/C (second compound 9.49 µM, first compound 0.001 µM): 58.5%
- viability, T/C (second compound 9.49 µM, first compound 0.00316 µM): 62.8%
- viability, T/C (second compound 9.49 µM, first compound 0.01 µM): 4.62%
- viability, T/C (second compound 30 µM, first compound 31.6 pM): 41.7%
- viability, T/C (second compound 30 µM, first compound 0.0001 µM): 40.5%
- viability, T/C (second compound 30 µM, first compound 0.000316 µM): 41.3%
- viability, T/C (second compound 30 µM, first compound 0.001 µM): 42.8%
- viability, T/C (second compound 30 µM, first compound 0.00316 µM): 38.7%
- viability, T/C (second compound 30 µM, first compound 0.01 µM): 6.44%

SMILES: Cn1cnc2c(F)c(Nc3ccc(Br)cc3Cl)c(C(=O)NOCCO)cc21 + CC(C)NCC(C(=O)N1CCN(c2ncnc3c2C(C)CC3O)CC1)c1ccc(Cl)cc1
- IC50 [1]: < 9.49 nM
- IC50 [2]: < 9.49 nM
- IC50 [3]: < 9.49 nM
- IC50 [4]: < 9.49 nM
- IC50 [5]: < 9.49 nM
- viability, T/C (second compound 0.3 µM, first compound 0.00949 µM): 49.9%
- viability, T/C (second compound 0.3 µM, first compound 0.03 µM): 36.5%
- viability, T/C (second compound 0.3 µM, first compound 0.0949 µM): 30.9%
- viability, T/C (second compound 0.3 µM, first compound 0.3 µM): 26.8%
- viability, T/C (second compound 0.3 µM, first compound 0.949 µM): 21.4%
- viability, T/C (second compound 0.3 µM, first compound 3 µM): 13.1%
- viability, T/C (second compound 0.949 µM, first compound 0.00949 µM): 45.3%
- viability, T/C (second compound 0.949 µM, first compound 0.03 µM): 34.7%
- viability, T/C (second compound 0.949 µM, first compound 0.0949 µM): 30.9%
- viability, T/C (second compound 0.949 µM, first compound 0.3 µM): 28.1%
- viability, T/C (second compound 0.949 µM, first compound 0.949 µM): 21.5%
- viability, T/C (second compound 0.949 µM, first compound 3 µM): 13%
- viability, T/C (second compound 3 µM, first compound 0.00949 µM): 39.5%
- viability, T/C (second compound 3 µM, first compound 0.03 µM): 30.3%
- viability, T/C (second compound 3 µM, first compound 0.0949 µM): 27.6%
- viability, T/C (second compound 3 µM, first compound 0.3 µM): 24.1%
- viability, T/C (second compound 3 µM, first compound 0.949 µM): 17.3%
- viability, T/C (second compound 3 µM, first compound 3 µM): 11.8%
- viability, T/C (second compound 9.49 µM, first compound 0.00949 µM): 32.2%
- viability, T/C (second compound 9.49 µM, first compound 0.03 µM): 24.5%
- viability, T/C (second compound 9.49 µM, first compound 0.0949 µM): 22.6%
- viability, T/C (second compound 9.49 µM, first compound 0.3 µM): 20.6%
- viability, T/C (second compound 9.49 µM, first compound 0.949 µM): 15.6%
- viability, T/C (second compound 9.49 µM, first compound 3 µM): 10.9%
- viability, T/C (second compound 30 µM, first compound 0.00949 µM): 25.3%
- viability, T/C (second compound 30 µM, first compound 0.03 µM): 21.2%
- viability, T/C (second compound 30 µM, first compound 0.0949 µM): 18.4%
- viability, T/C (second compound 30 µM, first compound 0.3 µM): 17.5%
- viability, T/C (second compound 30 µM, first compound 0.949 µM): 13.8%
- viability, T/C (second compound 30 µM, first compound 3 µM): 8.92%

SMILES: Cn1cnc2c(F)c(Nc3ccc(Br)cc3Cl)c(C(=O)NOCCO)cc21
- viability, T/C (compound 0.00949 µM): 57.2% and 47.3%
- viability, T/C (compound 0.03 µM): 40.2% and 34.1%
- viability, T/C (compound 0.0949 µM): 33.8% and 27.4%
- viability, T/C (compound 0.3 µM): 31% and 24.2%
- viability, T/C (compound 0.949 µM): 25.6% and 21.6%
- viability, T/C (compound 3 µM): 15.3% and 11.8%
- IC50 (curve of compound): 15.8 nM and < 9.49 nM

SMILES: COC1CC2CCC(C)C(O)(O2)C(=O)C(=O)N2CCCCC2C(=O)OC(C(C)CC2CCC(OCCO)C(OC)C2)CC(=O)C(C)C=C(C)C(O)C(OC)C(=O)C(C)CC(C)C=CC=CC=C1C (centres undefined)
- viability, T/C (compound 0.000316 µM): 83.9% and 83.3%
- viability, T/C (compound 0.001 µM): 76.6% and 71.4%
- viability, T/C (compound 0.00316 µM): 71.5% and 66.5%
- viability, T/C (compound 0.01 µM): 64.1% and 59%
- viability, T/C (compound 0.0316 µM): 59.8% and 64.2%
- viability, T/C (compound 0.1 µM): 59.2% and 62.3%
- IC50 (curve of compound): > 100 nM
